Assay results: the supplement of paper PMC6045584
± gives the standard deviation of the averaged measurements.

Columns and labels:
17-AAG = compound: C=CCNC1=C2C[C@@H](C)C[C@H](OC)[C@H](O)[C@@H](C)/C=C(\C)[C@H](OC(N)=O)[C@@H](OC)/C=C\C=C(/C)C(=O)NC(=CC1=O)C2=O [17-AAG]; assay: surviving fraction relative to DMSO-only wells; higher = less growth inhibition; conditions: exposure time: 5 days
Procedure, shortened: (§1)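 Inhibitors were tested at 0.5, 1, 5, 10, 50, 100, 500 and 1000 nM, applied continuously for five days beginning 24 hours after log-phase tumour cells were seeded at 250–500 per well in 384-well plates. CellTiter-Glo luminescence served as the viability measure, expressed as surviving fraction against the median of DMSO-only wells. Each line, screened three times, was kept only with replicate Pearson r >0.7 and median Z' >0.3.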

RESVERATROL = compound: Oc1ccc(/C=C/c2cc(O)cc(O)c2)cc1 [RESVERATROL]; assay: as above; conditions: exposure time: 5 days
Procedure, shortened: as §1

| Test System | surviving fraction (17-AAG; 0.5 nM) | surviving fraction (17-AAG; 1 nM) | surviving fraction (17-AAG; 5 nM) | surviving fraction (17-AAG; 10 nM) | surviving fraction (17-AAG; 50 nM) | surviving fraction (17-AAG; 100 nM) | surviving fraction (17-AAG; 500 nM) | surviving fraction (17-AAG; 1000 nM) | surviving fraction (RESVERATROL; 0.5 nM) | surviving fraction (RESVERATROL; 1 nM) | surviving fraction (RESVERATROL; 5 nM) | surviving fraction (RESVERATROL; 10 nM) | surviving fraction (RESVERATROL; 50 nM) | surviving fraction (RESVERATROL; 100 nM) | surviving fraction (RESVERATROL; 500 nM) | surviving fraction (RESVERATROL; 1000 nM) |
| --- | --- | --- | --- | --- | --- | --- | --- | --- | --- | --- | --- | --- | --- | --- | --- | --- |
| SUM149 BREAST | 0.924 ± 0.031 | 0.964 ± 0.026 | 0.87 ± 0.053 | 0.35 ± 0.018 | 0.0457 ± 0.0049 | 0.034 ± 0.004 | 0.0233 ± 0.0023 | 0.0237 ± 0.00058 | 0.958 ± 0.048 | 1.02 ± 0.07 | 1.04 ± 0.082 | 0.958 ± 0.013 | 1.07 ± 0.048 | 0.989 ± 0.062 | 1.09 ± 0.034 | 1.09 ± 0.1 |
| SUM149.B1*.S BREAST | 0.9335 ± 0.0026 | 0.893 ± 0.032 | 0.905 ± 0.038 | 0.83 ± 0.017 | 0.201 ± 0.021 | 0.131 ± 0.018 | 0.083 ± 0.019 | 0.0832 ± 0.014 | 1.05 ± 0.056 | 1.09 ± 0.041 | 1.08 ± 0.051 | 1.1 ± 0.061 | 1.02 ± 0.036 | 1.128 ± 0.0016 | 1.09 ± 0.043 | 1.14 ± 0.026 |
| SUM159 BREAST | 1.02 ± 0.087 | 0.998 ± 0.046 | 0.993 ± 0.062 | 0.946 ± 0.044 | 0.0997 ± 0.0055 | 0.0537 ± 0.0086 | 0.053 ± 0.0046 | 0.0527 ± 0.01 | 1.04 ± 0.028 | 1.1 ± 0.024 | 1.06 ± 0.03 | 1.06 ± 0.021 | 1.033 ± 0.0053 | 1.07 ± 0.016 | 1.08 ± 0.018 | 1.11 ± 0.017 |
| SYO1 SYNOVIAL | 0.8369 ± 0.0068 | 0.819 ± 0.049 | 0.8483 ± 0.0038 | 0.8 ± 0.038 | 0.488 ± 0.042 | 0.183 ± 0.012 | 0.0407 ± 0.0017 | 0.0322 ± 0.0014 | 0.975 ± 0.062 | 0.996 ± 0.027 | 0.996 ± 0.04 | 0.991 ± 0.044 | 0.974 ± 0.045 | 1.01 ± 0.038 | 0.987 ± 0.039 | 1.01 ± 0.051 |
| T47D BREAST | 0.943 ± 0.058 | 0.914 ± 0.035 | 0.944 ± 0.011 | 0.958 ± 0.046 | 0.928 ± 0.023 | 0.747 ± 0.032 | 0.4288 ± 0.004 | 0.425 ± 0.0062 | 1.06 ± 0.011 | 1.1 ± 0.036 | 1.11 ± 0.049 | 1.11 ± 0.017 | 0.997 ± 0.15 | 1.08 ± 0.08 | 1.02 ± 0.15 | 1.08 ± 0.16 |
| U2OS BONE | 0.943 ± 0.049 | 0.9303 ± 0.0058 | 0.991 ± 0.018 | 0.886 ± 0.05 | 0.627 ± 0.0092 | 0.143 ± 0.004 | 0.0713 ± 0.0021 | 0.0763 ± 0.0032 | 1.06 ± 0.018 | 1.04 ± 0.022 | 1.04 ± 0.029 | 1.06 ± 0.054 | 1.06 ± 0.031 | 1.08 ± 0.028 | 1.05 ± 0.033 | 1.05 ± 0.027 |
| VCAP PROSTATE | 0.94 ± 0.075 | 0.969 ± 0.054 | 1.12 ± 0.17 | 1.03 ± 0.12 | 0.683 ± 0.066 | 0.19 ± 0.018 | 0.167 ± 0.016 | 0.183 ± 0.03 | 1.02 ± 0.18 | 0.812 ± 0.12 | 0.994 ± 0.12 | 1.02 ± 0.13 | 0.901 ± 0.061 | 0.978 ± 0.017 | 0.88 ± 0.07 | 0.931 ± 0.18 |
| VP229 BREAST | 0.808 ± 0.1 | 0.782 ± 0.031 | 0.842 ± 0.076 | 0.773 ± 0.085 | 0.641 ± 0.089 | 0.387 ± 0.042 | 0.101 ± 0.013 | 0.0917 ± 0.012 | 1.19 ± 0.11 | 1.32 ± 0.14 | 1.19 ± 0.12 | 1.2 ± 0.17 | 1.09 ± 0.18 | 1.22 ± 0.095 | 1.23 ± 0.16 | 1.12 ± 0.19 |
| YAMATO SYNOVIAL | 0.976 ± 0.059 | 0.815 ± 0.022 | 0.936 ± 0.084 | 0.89 ± 0.039 | 1.22 ± 0.039 | 0.735 ± 0.064 | 0.357 ± 0.0093 | 0.318 ± 0.0064 | 1.21 ± 0.063 | 1.28 ± 0.1 | 1.34 ± 0.064 | 1.27 ± 0.18 | 1.32 ± 0.18 | 1.31 ± 0.099 | 1.25 ± 0.073 | 1.15 ± 0.15 |
| ZR751 BREAST | 1.17 ± 0.2 | 1.04 ± 0.12 | 0.994 ± 0.1 | 0.618 ± 0.13 | 0.22 ± 0.022 | 0.228 ± 0.032 | 0.213 ± 0.013 | 0.207 ± 0.024 | 0.956 ± 0.028 | 1.08 ± 0.069 | 0.95 ± 0.07 | 1.01 ± 0.037 | 1.01 ± 0.1 | 1.03 ± 0.1 | 0.957 ± 0.045 | 1.12 ± 0.088 |
